Reference: patent publication US9028855B2, “Plant additives and uses thereof to modulate the synthesis of membrane glycerolipids in planta” (Commissariat a l'Energie Atomique et aux Energies …, priority 2009, dated 2015)
Entries after “also recorded” stand apart in the source; their conditions may differ. One block for each molecule: values may come before it.

How the values were obtained:
phopholipase Dz2 = assay: PLDz::GUS, follow-up of the expression of the gene encoding phospholipase Dz2 (GUS staining); assay type: in vivo, A. thaliana; settings: summary over PLDz::GUS and MGD3::GUS; specific = without impact on growth or PHT1;4
Description: pPLDZ2:GUS-GFP cell line is as described by Cruz-Ramirez et al. (Cruz-Ramirez et al., 2006), and expressed a GUS-GFP fusion under the control of the pldz2 promoter. […] Plants were examined for GUS activity by dipping the samples in a GUS staining solution (50 mM sodium phosphate buffer pH 7.0; 0.01% Triton X-100, 1 mM K3Fe(CN)6, 1 mM K4Fe(CN)6, 1 mg/ml 5-dromo-4-chloro-3-indolyl (3-D-GLUCURONIDE (X-Gluc A) and incubated at 37° C. over-night. After staining, the plants were fixed 2 hours in 50 mM sodium phosphate buffer pH 7.0; 1% glutaraldehyde; 4% formaldehyde. In response to phosphate starvation, the lipid metabolism is modified (Benning and Ohta, 2005). Plants preferentially synthesize sulpho- and galacto-lipids instead of phospholipids. Several enzymes are involved in this remobilisation.

A. thaliana = assay: Root growth (primary root) of plants on high phosphate medium supplied with compound; assay type: in vivo; settings: for Root Growth: expressed as a percentage having regard to a control, +P control 100, −P 20; for primary root growth (in words): high phosphate medium supplied with compound
From the text: In response to phosphate starvation, the primary root growth is inhibited (Svistoonoff et al., 2007).

wild type seedlings = assay: Anthocyanins content (spectrophotometric); assay type: in vivo, A. thaliana; parameters: key to Antho: anthocyanin content as A530 - 2.2*A652; settings: accumulation of anthocyanes; +P control 46, −P 1008
Description: Anthocyanins were extracted with propanol:HCl:H2O (81:1:18) for 5 min at room temperature and 3 min at 100° C. Samples are centrifuged for 10 min at 4° C. Supernatants were collected and absorption measured at 530 nm and […]. Anthocyanin content was calculated as A530-2.2A652 (Lange et al., 1971).

[1] = tested on: phosphate transporter PHT1;4; assay: 8′G::GUS, follow-up of the expression of the phosphate transporter PHT1;4 (GUS staining); assay type: in vivo, A. thaliana; settings: compound added to the cultivation medium
From the text: 8′G cell line was obtained as follows: for the PHT1;4 promoter fusion, a 2 kb region upstream of the ORF of PHT1;4 was cloned in the vector pENTR/D-TOPO (pENTRT™/D-TOPO® Cloning Kit, ref. K2400-20, Invitrogen) and transferred to pKGWFS7 (Karimi et al., 2002) by recombination using Gateway BP (Gateway® BP Clonase® enzyme mix, ref. 11789-013, Invitrogen) and LR Clonase enzyme mixes (LR Clonase® II Plus enzyme, ref. 12538-120, Invitrogen), respectively, to produce the pPHT1;4:GUS-GFP gene fusion. This fusion was then introduced into the Arabidopsis genome via the Agrobacterium-mediated transformation system (Logemann et al., 2006).
Plants were examined for GUS activity by dipping the samples in a GUS staining solution (50 mM sodium phosphate buffer pH 7.0; 0.01% Triton X-100, 1 mM K3Fe(CN)6, 1 mM K4Fe(CN)6, 1 mg/ml 5-dromo-4-chloro-3-indolyl (3-D-GLUCURONIDE (X-Gluc A) and incubated at 37° C. over-night. After staining, the plants were fixed 2 hours in 50 mM sodium phosphate buffer pH 7.0; 1% glutaraldehyde; 4% formaldehyde.

lipid metabolism: induction of PLDζ2 and/or MGD3 genes (in words) (phopholipase Dz2): specificity in lipids remodeling
SMILES: CC1(C)CC(=O)C(=CNc2ccccc2N)C(=O)C1 [#40]
Root Growth (A. thaliana): 85 % of control | Antho (wild type seedlings): 65

SMILES: CC1(C)CC(=O)C(=CNc2ccc3c(c2)OCO3)C(=O)C1 [#30]
lipid metabolism: induction of PLDζ2 and/or MGD3 genes (in words) (phopholipase Dz2): impact specifically the lipid metabolism inducing PLD[…]2 and MGD3; also recorded: specificity in lipids remodeling | Root Growth (A. thaliana): 65 % of control | Antho (wild type seedlings): 189

SMILES: CC1(C)CC(=O)C(=CNc2ccc(F)cc2)C(=O)C1 [#5]
Root Growth (A. thaliana): 73 % of control | primary root growth (in words) (A. thaliana): without altering the root growth; also recorded: do not induce a reduction of the root growth | Antho (wild type seedlings): 110 | PHT1;4 expression (in words, summary of analogues) [1]: induced PHT 1;4 expression; also recorded: induce expression of the Pht1;4 gene

SMILES: O=C1CC(c2ccccc2)CC(=O)C1=CNCc1ccccn1 (centres unmarked) [#17]
Root Growth (A. thaliana): 60 % of control | Antho (wild type seedlings): 408

SMILES: CC1(C)CC(=O)C(=CNc2cc(Cl)cc(Cl)c2)C(=O)C1 [#4]
Root Growth (A. thaliana): 50 % of control | Antho (wild type seedlings): 210

SMILES: CC1(C)CC(=O)C(=CNc2ccc(S(C)(=O)=O)cc2)C(=O)C1 [#36]
Root Growth (A. thaliana): 58 % of control | Antho (wild type seedlings): 235

SMILES: Cc1cccc(NC=C2C(=O)CC(C)(C)CC2=O)c1 [#7]
Root Growth (A. thaliana): 75 % of control | primary root growth (in words) (A. thaliana): without altering the root growth | Antho (wild type seedlings): 172 | PHT1;4 expression (in words, summary of analogues) [1]: induced PHT 1;4 expression

SMILES: Cc1cccc(CN/C=C2/C(=O)Nc3ccccc32)n1 [#18]
Root Growth (A. thaliana): 88 % of control | Antho (wild type seedlings): 195

SMILES: O=C1CC(c2ccccc2)CC(=O)C1=CNc1ccccc1 (centres unmarked) [#28]
Root Growth (A. thaliana): 100 % of control | primary root growth (in words) (A. thaliana): do not induce a reduction of the root growth | Antho (wild type seedlings): 247 | PHT1;4 expression (in words, summary of analogues) [1]: induce expression of the Pht1;4 gene

SMILES: CC1(C)CC(=O)C(=CNc2ccc(O)cc2)C(=O)C1 [#38]
Root Growth (A. thaliana): 60 % of control | Antho (wild type seedlings): 206

SMILES: CC1(C)CC(=O)C(=CNc2cccc([N+](=O)[O-])c2)C(=O)C1 [#24]
Root Growth (A. thaliana): 54 % of control | Antho (wild type seedlings): 240

SMILES: CC1(C)CC(=O)C(=CNc2cccc(Cl)c2)C(=O)C1 [#10]
Root Growth (A. thaliana): 41 % of control | Antho (wild type seedlings): 225

lipid metabolism: induction of PLDζ2 and/or MGD3 genes (in words) (phopholipase Dz2): specificity in lipids remodeling
SMILES: O=C1CCCC(=O)C1=CNc1ccccc1 [#23]
Root Growth (A. thaliana): 100 % of control | Antho (wild type seedlings): 42

SMILES: CC1(C)CC(=O)C(=C(S)Nc2ccccc2)C(=O)C1 [#31]
lipid metabolism: induction of PLDζ2 and/or MGD3 genes (in words) (phopholipase Dz2): impact specifically the lipid metabolism inducing PLD[…]2 and MGD3; also recorded: specificity in lipids remodeling | Root Growth (A. thaliana): 89 % of control | Antho (wild type seedlings): 62

SMILES: Cc1ccc(NC=C2C(=O)CC(C)(C)CC2=O)nc1 [#19]
Root Growth (A. thaliana): 47 % of control | Antho (wild type seedlings): 193

SMILES: Cc1ccc(NC=C2C(=O)CC(C)(C)CC2=O)c(C)c1 [#9]
Root Growth (A. thaliana): 71 % of control | Antho (wild type seedlings): 130

SMILES: CC1(C)CC(=O)C(=CNc2ccc(Br)cc2)C(=O)C1 [#27]
Root Growth (A. thaliana): 98 % of control | primary root growth (in words) (A. thaliana): without altering the root growth; also recorded: do not induce a reduction of the root growth | Antho (wild type seedlings): 43 | PHT1;4 expression (in words, summary of analogues) [1]: induced PHT 1;4 expression; also recorded: induce expression of the Pht1;4 gene

SMILES: CC1(C)CC(=O)C(=CNc2ccc(F)c(Cl)c2)C(=O)C1 [#3]
Root Growth (A. thaliana): 41 % of control | Antho (wild type seedlings): 806

SMILES: CC(=NO)c1ccc(NC=C2C(=O)CC(C)(C)CC2=O)cc1 [#25]
Root Growth (A. thaliana): 63 % of control | Antho (wild type seedlings): 405

SMILES: O=C1CCCC(=O)C1=CNc1ccc(Br)cc1 [#45]
lipid metabolism: induction of PLDζ2 and/or MGD3 genes (in words) (phopholipase Dz2): impact specifically the lipid metabolism inducing PLD[…]2 and MGD3; also recorded: specificity in lipids remodeling | Root Growth (A. thaliana): 67 % of control | Antho (wild type seedlings): 106

SMILES: CC1(C)CC(=O)C(=CNc2ccc(I)cc2)C(=O)C1 [#8]
Root Growth (A. thaliana): 56 % of control | Antho (wild type seedlings): 37

SMILES: O=C1CCCC(=O)C1=CNc1ccc(Cl)cc1Cl [#44]
Root Growth (A. thaliana): 68 % of control | primary root growth (in words) (A. thaliana): without altering the root growth; also recorded: do not induce a reduction of the root growth | Antho (wild type seedlings): 123 | PHT1;4 expression (in words, summary of analogues) [1]: induced PHT 1;4 expression; also recorded: induce expression of the Pht1;4 gene

SMILES: CC1(C)CC(=O)C(=CNc2ccc(Br)cc2)C(=O)C1 [#2]
Root Growth (A. thaliana): 59 % of control | Antho (wild type seedlings): 258

SMILES: CC(=O)c1ccc(NC=C2C(=O)CC(C)(C)CC2=O)cc1 [#34]
Root Growth (A. thaliana): 59 % of control | Antho (wild type seedlings): 289

SMILES: Cc1c(Cl)cccc1NC=C1C(=O)CC(C)(C)CC1=O [#12]
Root Growth (A. thaliana): 57 % of control | Antho (wild type seedlings): 850

SMILES: COc1cccc(NC=C2C(=O)CC(C)(C)CC2=O)c1 [#47]
Root Growth (A. thaliana): 70 % of control | primary root growth (in words) (A. thaliana): without altering the root growth; also recorded: do not induce a reduction of the root growth | Antho (wild type seedlings): 324 | PHT1;4 expression (in words, summary of analogues) [1]: induced PHT 1;4 expression; also recorded: induce expression of the Pht1;4 gene

SMILES: O=C1CCCC(=O)C1=CNc1cc(Cl)cc(Cl)c1 [#33]
Root Growth (A. thaliana): 59 % of control | Antho (wild type seedlings): 167

SMILES: CC1(C)CC(=O)C(=CNc2ccccn2)C(=O)C1 [#15]
Root Growth (A. thaliana): 40 % of control | Antho (wild type seedlings): 283

SMILES: CSc1ccc(NC=C2C(=O)CC(C)(C)CC2=O)cc1 [#35]
Root Growth (A. thaliana): 60 % of control | Antho (wild type seedlings): 208

SMILES: CCC1CC(=O)C(=CNc2cc(F)cc(F)c2)C(=O)C1 (centres unmarked) [#32]
Root Growth (A. thaliana): 13 % of control | Antho (wild type seedlings): 103

SMILES: COc1ccc(NC=C2C(=O)CC(C)(C)CC2=O)cc1OC [#37]
Root Growth (A. thaliana): 69 % of control | primary root growth (in words) (A. thaliana): do not induce a reduction of the root growth | Antho (wild type seedlings): 204 | PHT1;4 expression (in words, summary of analogues) [1]: induce expression of the Pht1;4 gene

SMILES: CC1(C)CC(=O)C(=CNc2ncc(C(F)(F)F)cc2Cl)C(=O)C1 [#20]
Root Growth (A. thaliana): 72 % of control | primary root growth (in words) (A. thaliana): without altering the root growth; also recorded: do not induce a reduction of the root growth | Antho (wild type seedlings): 142 | PHT1;4 expression (in words, summary of analogues) [1]: induced PHT 1;4 expression; also recorded: induce expression of the Pht1;4 gene

SMILES: CC1(C)CC(=O)C(=CNCc2ccccn2)C(=O)C1 [#11]
Root Growth (A. thaliana): 63 % of control | primary root growth (in words) (A. thaliana): without altering the root growth | Antho (wild type seedlings): 163 | PHT1;4 expression (in words, summary of analogues) [1]: induced PHT 1;4 expression

SMILES: CC1(C)CC(=O)C(=CNc2cccnc2)C(=O)C1 [#16]
Root Growth (A. thaliana): 40 % of control | Antho (wild type seedlings): 431

SMILES: CC1(C)CC(=O)C(=CNc2ccccc2C(N)=O)C(=O)C1 [#39]
Root Growth (A. thaliana): 60 % of control | Antho (wild type seedlings): 183

SMILES: Cc1ccnc(NS(=O)(=O)c2ccc(NC=C3C(=O)CC(C)(C)CC3=O)cc2)n1 [#26]
Root Growth (A. thaliana): 6 % of control | Antho (wild type seedlings): 640

SMILES: O=C1CCCC(=O)C1=CNc1ccc(Cl)c(Cl)c1 [#43]
Root Growth (A. thaliana): 67 % of control | primary root growth (in words) (A. thaliana): without altering the root growth; also recorded: do not induce a reduction of the root growth | Antho (wild type seedlings): 186 | PHT1;4 expression (in words, summary of analogues) [1]: induced PHT 1;4 expression; also recorded: induce expression of the Pht1;4 gene

SMILES: CC1(C)CC(=O)C(=CNc2ccc(F)c(F)c2)C(=O)C1 [#14]
Root Growth (A. thaliana): 61 % of control | primary root growth (in words) (A. thaliana): without altering the root growth | Antho (wild type seedlings): 150 | PHT1;4 expression (in words, summary of analogues) [1]: induced PHT 1;4 expression

SMILES: Cc1ccc(NC=C2C(=O)CC(C)(C)CC2=O)cc1 [#1]
Root Growth (A. thaliana): 64 % of control | primary root growth (in words) (A. thaliana): without altering the root growth | Antho (wild type seedlings): 274 | PHT1;4 expression (in words, summary of analogues) [1]: induced PHT 1;4 expression

SMILES: Cc1ccc(NC=C2C(=O)CC(C)(C)CC2=O)cc1Cl [#6]
Root Growth (A. thaliana): 53 % of control

SMILES: CC1(C)CC(=O)C(=CNc2ccncc2)C(=O)C1 [#13]
Root Growth (A. thaliana): 42 % of control | Antho (wild type seedlings): 513
